# Read-outs that look alike come from different tables or passages of the source.
# Tests used:
# CB1 receptor = conditions: cited from earlier work
# CB1 [1] = test system: CB1; set-up: method as in PMID 21420860; conditions: Figure 1; read-out: IC50 cAMP (CB1); cited from earlier work
# CB2 [2] = test system: CB2; set-up: method as in PMID 21420860; conditions: Figure 1; read-out: IC50 cAMP (CB2); cited from earlier work
# [3] = biological target: human cannabinoid CB1 receptor (Homo sapiens, UniProt P21554); assay: CB1 receptor radioligand ([3H]CP-55,940) displacement binding assay; conditions: for inhibition at 1 µM: read-out: displacement of [3H]CP-55,940 in the preliminary screen (printed in the CB1 Ki column); for IC50: CoMFA training and test set input
# Sequence of human cannabinoid CB1 receptor (P21554 whole entry): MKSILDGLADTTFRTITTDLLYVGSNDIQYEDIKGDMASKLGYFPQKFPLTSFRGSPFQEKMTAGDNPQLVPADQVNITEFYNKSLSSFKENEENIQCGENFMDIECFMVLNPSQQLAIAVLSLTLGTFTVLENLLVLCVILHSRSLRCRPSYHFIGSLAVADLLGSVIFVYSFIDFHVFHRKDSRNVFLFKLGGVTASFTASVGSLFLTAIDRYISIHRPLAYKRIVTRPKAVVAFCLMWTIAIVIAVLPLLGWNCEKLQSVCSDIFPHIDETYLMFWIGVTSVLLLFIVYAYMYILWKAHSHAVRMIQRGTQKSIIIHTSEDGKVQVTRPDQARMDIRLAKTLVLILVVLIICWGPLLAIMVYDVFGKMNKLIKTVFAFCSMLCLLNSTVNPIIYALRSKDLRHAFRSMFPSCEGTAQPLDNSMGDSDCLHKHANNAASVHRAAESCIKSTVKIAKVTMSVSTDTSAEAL
# Experimental: In all cases, Ki values were calculated by applying the Cheng-Prusoff equation [34] to the IC50 values (obtained by GraphPad, GraphPad Software, Inc., La Jolla, CA, USA) for the displacement of the bound radioligand by increasing concentrations of the test compounds (after three separate experiments for each compound).
# CB2 [4] = biological target: CB2; set-up: method as in PMID 21885167; conditions: Figure 1; cited from earlier work
# CB1 [5] = test system: CB1; set-up: method as in PMID 21669533; conditions: Figure 1; cited from earlier work
# CB2 [6] = test system: CB2; set-up: method as in PMID 21669533; conditions: Figure 1; cited from earlier work
# [7] = read-out: Experimental activity (pIC50) (converted)
SMILES,inhibition at 1 µM [3] [%],melting point [°C],further results
CCCCCn1c(C)c(C(=O)c2ccccc2I)c2ccccc21 [AM679],,,Ki (CB1 receptor; non-selective CB1 and CB2 agonist): 0.0135 µM
O=C(c1cccc(Cl)c1Cl)c1nc(CN2CCC(F)(F)CC2)c2ccccn12 [Merck],,,IC50 (CB1 [1]): 0.09 µM; IC50 (CB2 [2]): 0.0003 µM
"Fc1ccc2c(c1)nc(-c1ccncc1)n2Cc1cccc2ccccc12 [Compound 42, 5-Fluoro-1-(naphthalen-1-ylmethyl)-2-(pyridin-4-yl)-1H-benzo[d]imidazole]",< 50,151.5 to 152.5,
"Cc1cc2nc(-c3ccncc3)n(C(=O)c3ccc4ccccc4c3)c2cc1C [Compound 32, (5,6-Dimethyl-2-(pyridin-4-yl)-1H-benzo[d]imidazol-1-yl)(naphthalen-2-yl)methanone]",< 50,160.4 to 160.9,
"O=C(c1ccc2ccccc2c1)n1c(-c2ccccn2)nc2ccccc21 [Compound 22, Naphthalen-2-yl(2-(pyridin-2-yl)-1H-benzo[d]imidazol-1-yl)methanone]",< 50,145 to 146,
"Cc1cc2nc(-c3cccnc3)n(Cc3cccc4ccccc34)c2cc1C [Compound 40, 5,6-Dimethyl-1-(naphthalen-1-ylmethyl)-2-(pyridin-3-yl)-1H-benzo[d]imidazole]",< 50,141.4 to 142.1,
"O=C(c1cccc2ccccc12)n1c(-c2ccncc2)nc2cc(F)ccc21 [Compound 19, (5-Fluoro-2-(pyridin-4-yl)-1H-benzo[d]imidazol-1-yl)(naphthalen-1-yl)methanone]",< 50,180.7 to 181.7,
"c1ccc(-c2nc3ccccc3n2Cc2cccc3ccccc23)nc1 [Compound 33, 1-(Naphthalen-1-ylmethyl)-2-(pyridin-2-yl)-1H-benzo[d]imidazole]",< 50,150.7 to 151.6,
"O=C(c1ccc2ccccc2c1)n1c(-c2cccnc2)nc2ccc(F)cc21 [Compound 27, (6-Fluoro-2-(pyridin-3-yl)-1H-benzo[d]imidazol-1-yl)(naphthalen-2-yl)methanone]",,167.2 to 167.7,"IC50 [3, 7]: 1.77 µM; Ki ([3]; read-out: CB1 (Ki)): 963 ± 155 nM"
"O=C(c1cccc2ccccc12)n1c(-c2ccccn2)nc2ccc(F)cc21 [Compound 12, (6-Fluoro-2-(pyridin-2-yl)-1H-benzo[d]imidazol-1-yl)(naphthalen-1-yl)methanone]",< 50,177.2 to 178,
"O=C(c1ccc2ccccc2c1)n1c(-c2ccncc2)nc2ccccc21 [Compound 29, Naphthalen-2-yl(2-(pyridin-4-yl)-1H-benzo[d]imidazol-1-yl)methanone]",,145 to 146.1,"IC50 [3, 7]: 8.22 µM; Ki ([3]; read-out: CB1 (Ki)): 4490 ± 133 nM"
"O=C(c1ccc2ccccc2c1)n1c(-c2ccncc2)nc2cc(F)ccc21 [Compound 30, (5-Fluoro-2-(pyridin-4-yl)-1H-benzo[d]imidazol-1-yl)(naphthalen-2-yl)methanone]",,195.7 to 200.6,"Ki ([3]; CB1 (Ki, nM), displacement of 0.5 nM [3H]CP-55,940, means ± SEM, n = 3, Cheng-Prusoff from IC50): 1030 ± 57.9 nM; IC50 ([3]; Experimental activity (pIC50, M)): 1.88 µM"
"Fc1ccc2nc(-c3ccncc3)n(Cc3cccc4ccccc34)c2c1 [Compound 43, 6-Fluoro-1-(naphthalen-1-ylmethyl)-2-(pyridin-4-yl)-1H-benzo[d]imidazole]",,167.4 to 168.1,"IC50 [3, 7]: 1.12 µM; Ki ([3]; read-out: CB1 (Ki)): 614 ± 54.7 nM"
"O=C(c1ccc2ccccc2c1)n1c(-c2cccnc2)nc2ccccc21 [Compound 25, Naphthalen-2-yl(2-(pyridin-3-yl)-1H-benzo[d]imidazol-1-yl)methanone]",< 50,148 to 148.6,
CCCCCn1c(C)c(C(=O)c2cccc3ccccc23)c2cccnc21 [Abbott],,,pKi (CB1) (CB1 receptor; Figure 1): 7.9; pKi (CB2) (CB2 [4]): 7.3
CCS(=O)(=O)c1ccc2c(c1)nc(C(C)(C)C)n2C[C@@H]1CCCO1 [Pfizer],,,EC50 (CB1 [5]): > 10 µM; EC50 (CB2 [6]): 0.0117 µM
"Fc1ccc2nc(-c3ccccn3)n(Cc3ccc4ccccc4c3)c2c1 [Compound 47, 6-Fluoro-1-(naphthalen-2-ylmethyl)-2-(pyridin-2-yl)-1H-benzo[d]imidazole]",< 50,170.5 to 171.3,

# Source: article PMC6270614 (Molecules, 2013)
